From US20030176381A1, “Hyaluronic acid in the treatment of cancer” (priority 2002, published 2003)

Tests used:
Assay type in all cases: cell-based
[1] = system: HT-1080 human fibrosarcoma cancer cells; experiment: MTT cell proliferation, HT-1080; settings: 48 h
Experimental: (§1) Cell proliferation was measured using dimethylthiazoldiphenyltetrazolium (MTT) reduction (Mosman et al. J. Immunol. Methods 65:55, 1983). Unless otherwise stated, 100 Al of 5 mg of MTT (Sigma-Aldrich, St. Louis, Mo., USA) dissolved in 1 ml of PBS was added into each well. After 4 h, medium was removed from each well, 1.0 ml of acid-isopropanol (0.04 N HCI in isopropanol) was added and reduced MTT was solubilized by mixing. Absorbency of the reaction product was measured at a wavelength of 570 nm using a multiplate spectrophotometer reader (Elx800 Model, Bio-TEK Instruments Inc., Winooski, Vt., USA).
(§2) Unless stated otherwise 1.0 x 10^5 cells/ml were seeded in 6-well flat-bottom tissue culture plates and were maintained for 48 h at 370 C in a 5% CO2 atmosphere.
(§3) PC-3, LNCAP and Du-145 human prostate cancer cells; MCF-7 human breast cancer cells; HT-1080 human fibrosarcoma cancer cells; B16F1 murine melanoma cells; and, UMUC-3, RT-4, HT-1376 and T-24 human bladder cancer cells were incubated with 0.8, 8.0 and 80 μg/ml of 5.0-7.5 x 10^5 Da HA (Table 2).

[2] = system: RT-4 human bladder cancer cells; experiment: MTT cell proliferation, RT-4
Experimental: Cell proliferation was measured using dimethylthiazoldiphenyltetrazolium (MTT) reduction (Mosman et al. J. Immunol. Methods 65:55, 1983). Unless otherwise stated, 100 Al of 5 mg of MTT (Sigma-Aldrich, St. Louis, Mo., USA) dissolved in 1 ml of PBS was added into each well. After 4 h, medium was removed from each well, 1.0 ml of acid-isopropanol (0.04 N HCI in isopropanol) was added and reduced MTT was solubilized by mixing. Absorbency of the reaction product was measured at a wavelength of 570 nm using a multiplate spectrophotometer reader (Elx800 Model, Bio-TEK Instruments Inc., Winooski, Vt., USA). […] PC-3, LNCAP and Du-145 human prostate cancer cells; MCF-7 human breast cancer cells; HT-1080 human fibrosarcoma cancer cells; B16F1 murine melanoma cells; and, UMUC-3, RT-4, HT-1376 and T-24 human bladder cancer cells were incubated with 0.8, 8.0 and 80 μg/ml of 5.0-7.5 x 10^5 Da HA (Table 2). […] MTT was used at 50 μl per well. HT-1376, RT-4 and T-24 human bladder cancer cells were incubated with 0.8 pg/ml of 5.0-7.5 x 10^5 Da HA +1.0 ug/ml of MCC (Table 5). […] MCF-7 human breast cancer cells; RT-4, T-24, HT-1376 and UMUC-3 human bladder cancer cells; and, PC-3, Du-145 and LNCaP prostate cancer cells (Table 8)

[3] = system: T-24 human bladder cancer cells; experiment: MTT cell proliferation, T-24
Experimental: as §1, §2, §3
Unless stated otherwise 2.0 x 10^4 cells/ml were seeded in 24-well plates and were maintained for 48 h at 370 C in a 5% CO2 atmosphere. MTT was used at 50 μl per well.
T-24 human bladder cancer cells, PC-3 and Du-145 human prostate cancer cells, and MCF-7 human breast cancer cell were incubated with saline or with 80.0 jg/ml of 5.0-7.5 x 105 Da HA +1.0 μg/ml of M-DNA (Table 4).
HT-1376, RT-4 and T-24 human bladder cancer cells were incubated with 0.8 pg/ml of 5.0-7.5 x 10^5 Da HA +1.0 ug/ml of MCC (Table 5).
CD44 expression and the inhibition of proliferation by 5.0-7.5 x 10^5 Da HA were measured using Jurkat T cell leukemia cells; MCF-7 human breast cancer cells; RT-4, T-24, HT-1376 and UMUC-3 human bladder cancer cells; and, PC-3, Du-145 and LNCaP prostate cancer cells (Table 8)

[4] = system: MCF-7 human breast cancer cells; experiment: MTT cell proliferation, MCF-7; settings: MCF-7 (2.5 X 10^5 cells/ml)
[5] = HA at 0.8 μg/ml alone (+ saline), 24-well, Example 6

Hyaluronic acid [5.0-7.5 × 10^5 Da HA] was tested. Which “% INHIBITION of cell proliferation” value ([1]; HA 0.8 μg/ml) did it give?
Its value is 4%.

What about the “% INHIBITION of cell proliferation” value ([1]; HA 8.0 μg/ml) of the same substance?
Its value is 4%.

What about the “% INHIBITION of cell proliferation” value ([1]; HA 80.0 μg/ml) of the same substance?
Its value is 36%.

And the “% INHIBITION of cell proliferation” value ([2]; HA 0.008 μg/ml alone (+ saline))?
Its value is 0%.

And the “% INHIBITION of cell proliferation” value ([2]; HA 0.08 μg/ml alone (+ saline))?
The value was 0%.

What about the “% INHIBITION of cell proliferation” value ([2]; HA 0.8 μg/ml, 48 h) of the same substance?
The value was 12%.

What about the “% INHIBITION of cell proliferation” value ([2]; HA 8.0 μg/ml, 48 h) of the same substance?
The value was 13%.

What about the “% INHIBITION of cell proliferation” value ([2]; HA 80.0 μg/ml, 48 h) of the same substance?
The value was 5%.

And the “% INHIBITION of cell proliferation” value [2, 5]?
The value was 13%.

What about the “% INHIBITION of cell proliferation” value ([3]; HA 0.8 μg/ml, 48 h) of the same substance?
The value was 10%.

And the “% INHIBITION of cell proliferation” value ([3]; HA 8.0 μg/ml, 48 h)?
Its value is 8%.

What about the “% INHIBITION of cell proliferation” value ([3]; HA 80.0 μg/ml alone (+ saline), 24-well, Example 6) of the same substance?
Its value is 0%.

And the “% INHIBITION of cell proliferation” value ([3]; HA 80.0 μg/ml, 48 h)?
The value was 0%.

What about the “% INHIBITION of cell proliferation” value [3, 5] of the same substance?
The value was 8%.

What about the “% INHIBITION of cell proliferation” value ([4]; HA 0.01 μg/ml alone) of the same substance?
Its value is 6%.

And the “% INHIBITION of cell proliferation” value ([4]; HA 0.1 μg/ml alone)?
Its value is 5%.
